Where two headings read alike, the source gives them in different places.
What was measured:
[1] = target: T1, Humicola insolens cellobiose oxidase (CBO, 92 kDa, pI 4.0) (Mycothermus thermophilus, UniProt Q9P8H5); conditions: for Km: read-out: Km (electron donor), pH 7.5; for kcat (electron donor): sugar + 90 μM DCPIP, mol oxidized cellobiose/s/mol enzyme
T1 sequence (Q9P8H5 24-785): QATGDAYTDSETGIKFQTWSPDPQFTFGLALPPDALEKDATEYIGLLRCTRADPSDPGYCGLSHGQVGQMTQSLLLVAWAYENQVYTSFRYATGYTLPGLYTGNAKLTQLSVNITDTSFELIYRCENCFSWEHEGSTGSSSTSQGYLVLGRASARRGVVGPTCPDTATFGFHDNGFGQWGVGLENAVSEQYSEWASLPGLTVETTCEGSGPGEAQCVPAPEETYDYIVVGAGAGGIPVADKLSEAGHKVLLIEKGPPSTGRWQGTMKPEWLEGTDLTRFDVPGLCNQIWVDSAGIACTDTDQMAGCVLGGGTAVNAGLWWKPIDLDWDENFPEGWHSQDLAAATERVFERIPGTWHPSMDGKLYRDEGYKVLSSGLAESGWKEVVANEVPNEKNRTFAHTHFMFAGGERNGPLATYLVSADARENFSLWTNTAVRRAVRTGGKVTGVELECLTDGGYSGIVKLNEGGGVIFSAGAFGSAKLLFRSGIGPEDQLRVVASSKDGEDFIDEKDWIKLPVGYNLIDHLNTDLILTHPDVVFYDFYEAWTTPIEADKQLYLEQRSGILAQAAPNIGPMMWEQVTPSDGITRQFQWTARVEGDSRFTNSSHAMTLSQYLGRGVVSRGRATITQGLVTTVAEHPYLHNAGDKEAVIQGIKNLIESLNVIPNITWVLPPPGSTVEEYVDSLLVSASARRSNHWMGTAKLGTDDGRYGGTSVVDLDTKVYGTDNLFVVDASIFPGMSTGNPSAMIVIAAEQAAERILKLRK
Procedure: The measurements were performed in 0.1M sodium phosphate buffer at pH 7.5 at 40° C. 450 μl of a mixture of 100 μM of 2,6-Dichlorophenol-indophenol (DCPIP, Merck), 250 μM of cellobiose (Sigma) were mixed with 50 μl enzyme. Units of activity equals μmol cellobiose oxidized (DCPIP reduced) per min.
All measurements were performed in 0.1M sodium phosphate buffer, pH 7.5, at 40° C. […] The reactions were monitored for 400 s as changes in absorbance at the appropirate wavelength (see above). […] The catalytic constants (kcat) were expressed as mol of oxidized cellobiose/s/mol of enzyme. […] The kinetic constants were determined using Lineweaver-Burke plots and were the result of dual determinations.

CBH II (cellulase) = target: T2, CBH II (cellulase) (Humicola insolens, UniProt Q9C1S9); assay: Coupled cellobiose oxidase/DCPIP assay for cellulases; format: biochemical; conditions: for Ki: coupled CBO/DCPIP assay, read-out: KL (inhibition constant)
T2 sequence (Q9C1S9 17-476): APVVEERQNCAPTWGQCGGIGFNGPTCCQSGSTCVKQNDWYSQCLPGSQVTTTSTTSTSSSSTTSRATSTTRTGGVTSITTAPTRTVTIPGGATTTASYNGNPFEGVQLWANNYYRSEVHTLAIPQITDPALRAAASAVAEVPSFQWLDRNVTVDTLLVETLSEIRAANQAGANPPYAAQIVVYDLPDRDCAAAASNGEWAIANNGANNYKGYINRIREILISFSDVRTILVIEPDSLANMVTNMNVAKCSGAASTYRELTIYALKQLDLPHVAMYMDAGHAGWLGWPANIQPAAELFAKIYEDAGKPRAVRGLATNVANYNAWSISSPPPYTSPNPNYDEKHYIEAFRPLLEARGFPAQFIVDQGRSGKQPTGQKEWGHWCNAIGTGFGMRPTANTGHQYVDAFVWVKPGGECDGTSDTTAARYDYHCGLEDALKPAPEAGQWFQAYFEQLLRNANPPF
Description: The ability of the cellobiose oxidase to oxidize cellodextrins by means of an electron acceptor was utilized in an assay for cellulases. […] With this assay the kinetic constants for reduced cellodextrins of 5 different cellulases have been determined (table 2). […] The enzymes show very different substrate specificity, some of them requiring quite long substrates making it impossible to use the umbelliferyl cellobiosides and lactosides available for steady state kinetic. […] The inhibition constants were determined for two cellulases using the developed assay.

EG A (cellulase) = assay: as above; format: biochemical; conditions: reduced cellodextrin substrate
Description: (§1) The ability of the cellobiose oxidase to oxidize cellodextrins by means of an electron acceptor was utilized in an assay for cellulases. […] With this assay the kinetic constants for reduced cellodextrins of 5 different cellulases have been determined (table 2). […] The enzymes show very different substrate specificity, some of them requiring quite long substrates making it impossible to use the umbelliferyl cellobiosides and lactosides available for steady state kinetic.

EG C (cellulase) = assay: as above; format: biochemical; conditions: reduced cellodextrin substrate
Description: as §1

[2] = test system: Endo (cellulase, first line of the table); assay: as above; format: biochemical; conditions: reduced cellodextrin substrate
Description: as §1

Endo B (cellulase) = assay: as above; format: biochemical; conditions: reduced cellodextrin substrate
Description: as §1

Endo A (cellulase) = assay: as above; format: biochemical; conditions: coupled CBO/DCPIP assay
Description: The ability of the cellobiose oxidase to oxidize cellodextrins by means of an electron acceptor was utilized in an assay for cellulases. By using a substrate without a reducing end, such as a reduced cellodextrin, the reducing ends formed by the hydrolysis by the cellulase will be oxidized by the CBO. Simultaneously the coloured electron acceptor, dichlorophenolindophenol (DCPIP), is reduced by cellobiose oxidase to a colourless compound making it possible to follow the reaction spectrophotometrically at 600 nm DCPIP was chosen as electron acceptor because of its high extinction coefficient.
The inhibitors methyl 4-thiocellotrioside, methyl 4-thiocellotetraoside and methyl 4-thiocellopentaoside were synthesized at the laboratory in Grenoble^5. The inhibition constants were determined for two cellulases using the developed assay.

[3] = 0.1M sodium phosphate buffer, pH 7.5, 40° C.
[4] = read-out: KL (inhibition constant)
[5] = read-out: KLS (inhibition constant)

With CC(C)(C)C1=CC(=O)C(=O)C(C(C)(C)C)=C1 [Benzoquinone, 3,5-di-tert-butyl-1,2-benzoquinone] the “kcat (electron acceptor)” value ([1]; electron acceptor + 225 μM cellobiose, 0.1M sodium phosphate buffer, pH 7.5, 40° C.) was 15 s⁻¹.

OC[C@H]1O[C@@H](O[C@H]2[C@H](O)[C@@H](O)[C@H](O[C@H]3[C@H](O)[C@@H](O)[C@H](O[C@H]4[C@H](O)[C@@H](O)[C@H](O[C@H]5[C@H](O)[C@@H](O)C(O)O[C@@H]5CO)O[C@@H]4CO)O[C@@H]3CO)O[C@@H]2CO)[C@H](O)[C@@H](O)[C@@H]1O (stereo partly drawn) [Cellopentaose] was tested, and the Km [1] was 17 µM and the “kcat (electron donor)” value [1, 3] was 8.3 s⁻¹.

With OC[C@H]1O[C@@H](O[C@H]2[C@H](O)[C@@H](O)[C@H](O[C@H]3[C@H](O)[C@@H](O)[C@H](O[C@H]4[C@H](O)[C@@H](O)C(O)O[C@@H]4CO)O[C@@H]3CO)O[C@@H]2CO)[C@H](O)[C@@H](O)[C@@H]1O (stereo partly drawn) [Cellotetraose] the “kcat (electron donor)” value [1, 3] was 8.5 s⁻¹.

With OC[C@H]1O[C@@H](O[C@H]2[C@H](O)[C@@H](O)[C@H](O[C@H]3[C@H](O)[C@@H](O)C(O)O[C@@H]3CO)O[C@@H]2CO)[C@H](O)[C@@H](O)[C@@H]1O (stereo partly drawn) [Cellotriose] the “kcat (electron donor)” value [1, 3] was 8.5 s⁻¹.

OC[C@H]1OC(O)[C@H](O)[C@@H](O)[C@@H]1O (stereo partly drawn) [Glucose] was tested, and the “kcat (electron donor)” value [1, 3] was 0 s⁻¹.

With CC(=O)N[C@H]1[C@H](O[C@H]2[C@H](O)[C@@H](NC(C)=O)C(O)O[C@@H]2CO)O[C@H](CO)[C@@H](O)[C@@H]1O (stereo partly drawn) [N,N-Diacetylchitobiose] the “kcat (electron donor)” value [1, 3] was 0 s⁻¹.

For CC(=O)N[C@H]1C(O)O[C@H](CO)[C@@H](O[C@@H]2O[C@H](CO)[C@H](O)[C@H](O)[C@H]2O)[C@@H]1O (stereo partly drawn) [N-Acetyllactosamine], the “kcat (electron donor)” value [1, 3] was 0 s⁻¹.

OC[C@@H](O)[C@@H](O[C@@H]1O[C@H](CO)[C@@H](O[C@@H]2O[C@H](CO)[C@@H](O)[C@H](O)[C@H]2O)[C@H](O)[C@H]1O)[C@H](O)[C@@H](O)CO [Red. DP3] showed a kcat (CBH II (cellulase); reduced cellodextrin substrate) of 0 s⁻¹, a kcat (EG A (cellulase)) of 0 s⁻¹ and a kcat (EG C (cellulase)) of 0 s⁻¹. For the same molecule, the Km [2] was 500 µM, the kcat [2] was 0.24 s⁻¹ and the kcat (Endo B (cellulase)) was 0 s⁻¹.

For OC[C@@H](O)[C@@H](O[C@@H]1O[C@H](CO)[C@@H](O[C@@H]2O[C@H](CO)[C@@H](O[C@@H]3O[C@H](CO)[C@@H](O)[C@H](O)[C@H]3O)[C@H](O)[C@H]2O)[C@H](O)[C@H]1O)[C@H](O)[C@@H](O)CO [Red. DP4], the kcat (EG A (cellulase)) was 0 s⁻¹, the Km (EG C (cellulase)) was 1600 µM and the kcat (EG C (cellulase)) was 0.43 s⁻¹. It also gave a Km [2] of 26 µM, a kcat [2] of 29 s⁻¹ and a Km (Endo B (cellulase)) of 1500 µM. The kcat (Endo B (cellulase)) was 0.84 s⁻¹.

OC[C@@H](O)[C@@H](O[C@@H]1O[C@H](CO)[C@@H](O[C@@H]2O[C@H](CO)[C@@H](O[C@@H]3O[C@H](CO)[C@@H](O[C@@H]4O[C@H](CO)[C@@H](O)[C@H](O)[C@H]4O)[C@H](O)[C@H]3O)[C@H](O)[C@H]2O)[C@H](O)[C@H]1O)[C@H](O)[C@@H](O)CO [Red. DP5] gave a Km (EG A (cellulase)) of 460 µM, a kcat (EG A (cellulase)) of 0.00 s⁻¹ and a Km (EG C (cellulase)) of 68 µM. For the same molecule, the kcat (EG C (cellulase)) was 13 s⁻¹, the Km [2] was 14 µM and the kcat [2] was 40 s⁻¹. It also gave a Km (Endo B (cellulase)) of 150 µM and a kcat (Endo B (cellulase)) of 0.86 s⁻¹.

Work on OC[C@@H](O)[C@@H](O[C@@H]1O[C@H](CO)[C@@H](O[C@@H]2O[C@H](CO)[C@@H](O[C@@H]3O[C@H](CO)[C@@H](O[C@@H]4O[C@H](CO)[C@@H](O[C@@H]5O[C@H](CO)[C@@H](O)[C@H](O)[C@H]5O)[C@H](O)[C@H]4O)[C@H](O)[C@H]3O)[C@H](O)[C@H]2O)[C@H](O)[C@H]1O)[C@H](O)[C@@H](O)CO [Red. DP6] yielded a Km (EG A (cellulase)) of 54 µM, a kcat (EG A (cellulase)) of 0.15 s⁻¹ and a Km (EG C (cellulase)) of 71 µM. For the same molecule, the kcat (EG C (cellulase)) was 11 s⁻¹, the Km (Endo B (cellulase)) was 52 µM and the kcat (Endo B (cellulase)) was 14 s⁻¹.

In the case of OC1OC[C@@H](O[C@@H]2OC[C@@H](O)[C@H](O)[C@H]2O)[C@H](O)[C@H]1O (stereo partly drawn) [Xylobiose], the Km [1] is reported as 7100 µM and the “kcat (electron donor)” value [1, 3] is reported as 2.15 s⁻¹.

methyl 4-thiocellopentaoside [S-DP5] showed a Ki (CBH II (cellulase)) of 15 µM and a Ki (Endo A (cellulase); [4]) of 35 µM.

Work on methyl 4-thiocellotetraoside [S-DP4] yielded a Ki (CBH II (cellulase)) of 270 µM, a Ki (Endo A (cellulase); [4]) of 75 µM and a Ki (Endo A (cellulase); [5]) of 1000 µM.

In the case of methyl 4-thiocellotrioside [S-DP3], the Ki (CBH II (cellulase)) is reported as 1400 µM, the Ki (Endo A (cellulase); [4]) is reported as 300 µM and the Ki (Endo A (cellulase); [5]) is reported as 2000 µM.

Source: patent US5866392A, “Cellobiose oxidase, and enzymatic agent and a process for treating paper pulp” (priority 1992, dated 1999)
